Experimental data published in PubChem BioAssay (NCI).
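Growth conditions: 96-well plates. Treatment: test compound, 48 hours, 5 concentrations. Analysis: linear interpolation between bracketing concentrations; unreached endpoints set to highest concentration. Abbreviation: GI50, concentration required for 50% inhibition of growth. TGI: concentration producing complete growth inhibition.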

Columns and labels:
Experiment in all cases: NCI tumour cell line growth inhibition, 48 h
[1] = tested on: OVCAR-4 ovarian
[2] = tested on: UACC-62 melanoma
[3] = tested on: RPMI-8226 leukemia
[4] = tested on: CCRF-CEM leukemia
[5] = tested on: EKVX NSCLC
[6] = tested on: M14 melanoma
[7] = tested on: A498 renal
[8] = tested on: M19-MEL melanoma
[9] = tested on: SR leukemia
[10] = tested on: DMS 114 small cell lung
[11] = tested on: NCI-H226 lung
[12] = tested on: HT29 colon
[13] = tested on: KM20L2 colon
[14] = tested on: IGROV1 ovarian
[15] = tested on: OVCAR-5 ovarian
[16] = tested on: COLO 205 colon
[17] = tested on: MOLT-4 leukemia
[18] = tested on: A549 NSCLC
[19] = tested on: OVCAR-8 ovarian
[20] = tested on: OVCAR-3 ovarian
[21] = tested on: SK-MEL-28 melanoma
[22] = tested on: SNB-75 CNS
[23] = tested on: CAKI-1 renal
[24] = tested on: LXFL 529 NSCLC
[25] = tested on: SK-MEL-2 melanoma
[26] = tested on: SF-539 CNS
[27] = tested on: NCI-H522 lung
[28] = tested on: K-562 leukemia
[29] = tested on: SNB-19 CNS
[30] = tested on: DMS 273 small cell lung
[31] = tested on: HCC-2998 colon
[32] = tested on: KM12 colon
[33] = tested on: ACHN renal
[34] = tested on: 786-0 renal
[35] = tested on: U251 CNS
[36] = tested on: SK-OV-3 ovarian
[37] = tested on: MALME-3M melanoma
[38] = tested on: SK-MEL-5 melanoma
[39] = tested on: UACC-257 melanoma
[40] = tested on: NCI-H460 lung
[41] = tested on: HOP-62 NSCLC
[42] = tested on: LOX IMVI melanoma
[43] = tested on: HOP-18 NSCLC
[44] = tested on: SN12C renal
[45] = tested on: SF-295 CNS
[46] = tested on: HL-60(TB) leukemia
[47] = tested on: SNB-78 CNS
[48] = tested on: DLD-1 colon
[49] = tested on: NCI-H23 lung
[50] = tested on: SF-268 CNS
[51] = tested on: HCT-15 colon
[52] = tested on: UO-31 renal
[53] = tested on: HCT-116 colon
[54] = tested on: TK-10 renal
[55] = tested on: HOP-92 NSCLC
[56] = tested on: SW-620 colon
[57] = tested on: XF 498 CNS
[58] = tested on: RXF 393 renal

## Cn1cc2ccccc2c1-c1nc(F)nc(Oc2ccc3c(c2)CC[C@@H]2C3CC[C@@]3(C)C2CC[C@@H]3O)n1 (stereo not given in full)
[1]
  TGI: 16.4 µM
[2]
  TGI: 32.7 µM
[3]
  TGI: 21.7 µM
[4]
  TGI: > 100 µM
[5]
  TGI: 37.3 µM
[6]
  TGI: 20.4 µM
[7]
  TGI: 36 µM
[8]
  TGI: > 56.5 µM
[9]
  TGI: 21 µM
[10]
  GI50: 6.42 µM
  TGI: 22 µM
[11]
  TGI: 38.4 µM
[12]
  TGI: 35.8 µM
[13]
  TGI: 36.6 µM
[14]
  TGI: 15.3 µM
[15]
  TGI: 33.9 µM
[16]
  TGI: 41.8 µM
[17]
  TGI: > 56.9 µM
[18]
  TGI: 54.4 µM
[19]
  TGI: 19.7 µM
[20]
  TGI: 21.8 µM
[21]
  TGI: 27.1 µM
[22]
  TGI: 39.2 µM
[23]
  TGI: 16.3 µM
[24]
  TGI: 8.89 µM
[25]
  TGI: 10.2 µM
[26]
  TGI: 29.1 µM
[27]
  TGI: 12.7 µM
[28]
  TGI: > 87 µM
[29]
  TGI: 35.5 µM
[30]
  TGI: > 58.5 µM
[31]
  TGI: 33.5 µM
[32]
  TGI: 19.5 µM
[33]
  TGI: 35.4 µM
[34]
  TGI: 26.4 µM
[35]
  TGI: 13.2 µM
[36]
  TGI: 43.7 µM
[37]
  TGI: 35.5 µM
[38]
  TGI: 35.6 µM
[39]
  TGI: 45.8 µM
[40]
  TGI: 38.1 µM
[41]
  TGI: 27.9 µM
[42]
  TGI: 32.6 µM
[43]
  TGI: 34.2 µM
[44]
  TGI: 28.1 µM
[45]
  TGI: 63.5 µM
[46]
  TGI: 21 µM
[47]
  TGI: > 61.4 µM
[48]
  TGI: 14.6 µM
[49]
  TGI: 27.6 µM
[50]
  TGI: 28.7 µM
[51]
  TGI: 12.2 µM
[52]
  TGI: 50.9 µM
[53]
  TGI: 36 µM
[54]
  TGI: 18.3 µM
[55]
  TGI: 14.7 µM
[56]
  TGI: 17.6 µM

## COc1cc(OC)c(C#N)c(OC)c1C
[1]
  TGI: > 100 µM
[2]
  TGI: > 100 µM
[57]
  TGI: > 100 µM
[4]
  TGI: > 100 µM
[5]
  TGI: > 100 µM
[7]
  TGI: > 100 µM
[8]
  TGI: > 100 µM
[9]
  TGI: > 100 µM
[10]
  TGI: > 100 µM
[11]
  TGI: > 100 µM
[12]
  TGI: > 100 µM
[13]
  TGI: > 100 µM
[15]
  TGI: > 100 µM
[17]
  TGI: > 100 µM
[18]
  TGI: > 100 µM
[19]
  TGI: > 100 µM
[21]
  TGI: > 100 µM
[23]
  TGI: > 100 µM
[24]
  TGI: > 100 µM
[25]
  TGI: > 100 µM
[26]
  TGI: > 100 µM
[28]
  TGI: > 100 µM
[29]
  TGI: > 100 µM
[30]
  TGI: > 100 µM
[32]
  TGI: > 100 µM
[33]
  TGI: > 100 µM
[34]
  TGI: > 100 µM
[58]
  TGI: > 100 µM
[35]
  TGI: > 100 µM
[36]
  TGI: > 100 µM
[37]
  TGI: > 100 µM
[38]
  TGI: > 100 µM
[39]
  TGI: > 100 µM
[40]
  TGI: > 100 µM
[41]
  TGI: > 100 µM
[42]
  TGI: > 100 µM
[44]
  TGI: > 100 µM
[45]
  TGI: > 100 µM
[46]
  TGI: > 100 µM
[47]
  TGI: > 100 µM
[48]
  TGI: > 100 µM
[49]
  TGI: > 100 µM
[50]
  TGI: > 100 µM
[52]
  TGI: > 100 µM
[54]
  TGI: > 100 µM
[55]
  TGI: > 100 µM
[56]
  TGI: > 100 µM

## O=C1c2cc3c(cc2[C@@H]2NC4CCCC14O2)OCO3 (stereo not given in full)
[1]
  TGI: > 100 µM
[2]
  TGI: > 100 µM
[57]
  TGI: > 100 µM
[4]
  TGI: > 100 µM
[5]
  TGI: > 100 µM
[6]
  TGI: > 100 µM
[7]
  TGI: > 100 µM
[8]
  TGI: > 100 µM
[9]
  TGI: > 100 µM
[10]
  TGI: > 100 µM
[11]
  TGI: > 100 µM
[12]
  TGI: > 100 µM
[13]
  TGI: > 100 µM
[14]
  TGI: > 100 µM
[15]
  TGI: > 100 µM
[17]
  TGI: > 100 µM
[18]
  TGI: > 100 µM
[19]
  TGI: > 100 µM
[20]
  TGI: > 100 µM
[21]
  TGI: > 100 µM
[22]
  TGI: > 100 µM
[23]
  TGI: > 100 µM
[24]
  TGI: > 100 µM
[25]
  TGI: > 100 µM
[26]
  TGI: > 100 µM
[27]
  TGI: > 100 µM
[28]
  TGI: > 100 µM
[29]
  TGI: > 100 µM
[30]
  TGI: > 100 µM
[32]
  TGI: > 100 µM
[33]
  TGI: > 100 µM
[34]
  TGI: > 100 µM
[58]
  TGI: > 100 µM
[35]
  TGI: > 100 µM
[36]
  TGI: > 100 µM
[38]
  TGI: > 100 µM
[39]
  TGI: > 100 µM
[40]
  TGI: > 100 µM
[41]
  TGI: > 100 µM
[44]
  TGI: > 100 µM
[45]
  TGI: > 100 µM
[46]
  TGI: > 100 µM
[47]
  TGI: > 100 µM
[48]
  TGI: > 100 µM
[49]
  TGI: > 100 µM
[50]
  TGI: > 100 µM
[52]
  TGI: > 100 µM
[53]
  TGI: > 100 µM
[54]
  TGI: > 100 µM
[55]
  TGI: > 100 µM
[56]
  TGI: > 100 µM
